According to paper PMC8427973, “Regulation of the HTRA2 Protease Activity by an Inhibitory Antibody-Derived Peptide Ligand and the Influence on HTRA2-Specific Protein Interaction Networks in Retinal Tissues” (Biomedicines, 2021):

Test system: recombinant 6xHis-tag HTRA2 and its protein interaction partners in homogenized porcine retina
Experiment: Co-immunoprecipitation (Co-IP) of HTRA2 protein interaction partners, quantitative LC-MS/MS (iBAQ, volcano plot vs CTRL beads)
Design: species or system house swine (Sus scrofa)
Conditions: 2 µg HTRA2 + 10 µg compound, n = 3, vs CTRL beads
Procedure: The retina extraction and homogenization were performed as already described in previous publications. The use of animal by-products of house swine for scientific research purposes was approved by the Kreisverwaltung Mainz-Bingen in Germany (Identification Code: DE 07 315 0006 21, approved on 13 January 2014). In brief, retinal tissues were extracted from freshly removed porcine eye bulbs (house swine, Sus scrofa domestica Linnaeus, n = 30) provided by the local slaughterhouses (Landmetzgerei Harth, Stadecken-Elsheim, Germany). Afterwards, the retinal tissues were homogenized in 2 mL screw cap microtubes filled with 1.4/2.8 mm ceramic beads and 1 mL Tissue Protein Extraction Reagent (T-PER, Thermo Fisher Scientific, Rockford, IL, USA) using a Percellys® 24 homogenizer (VWR International GmbH, Darmstadt, Germany). The homogenized retinal samples were then centrifuged at 14,000× g for 15 min at 4 °C. The protein-containing supernatant was exchanged in a 100 µL phosphate-buffered saline (PBS) using a 3 kDa Amicon® filtration unit (Millipore, Billerica, MA, USA) and, prior to this, was extensively washed in order to completely remove traces of the T-PER buffer. Afterwards, the samples were pooled and the protein concentration was determined using a Pierce Bicinchoninic Acid (BCA) Protein Assay Kit (Thermo Fisher Scientific, Rockford, IL, USA) according to the manufacturer’s protocol, which provided 5 mg aliquots for further analysis.
The recombinant protein HTRA2 with a C-terminal 6xHis-tag motif (Novoprotein Scientific INC., Summit, NJ, USA) and 40 μL HisPurTM Ni-NTA magnetic beads (Thermo Fisher Scientific, Rockford, IL, USA) were spiked into 5 mg homogenized porcine retina. The experiment comprised of four groups: control homogenate (CTRL group), homogenate with 2 μg recombinant HTRA2 (HTRA2 group), homogenate with 2 μg recombinant HTRA2 and 10 μg UCF-101 (UCF-101 group), and homogenate with 2 μg recombinant HTRA2 and 10 μg synthetic CDR peptide (CDR group). The Co-IP of the recombinant HTRA2 and the enrichment of the respective interaction partners was performed with three independent biological replicates for each group (CTRL, HTRA2, UCF-101, and CDR group). After incubation at 4 °C overnight, the 6xHis-tagged protein HTRA2 with the bounded protein interaction partners (co-immunoprecipitation) was isolated with the previously added HisPurTM Ni-NTA magnetic beads (Thermo Fisher Scientific, Rockford, IL, USA) using a magnetic stand. Each bead group was washed twice with 400 μL PBS and the bounded HTRA2 including the protein interaction partners were eluted by pH shift. The protein concentration of each eluate fraction was determined as described above. Afterwards, 50 μg of each eluate fraction was evaporated using a speed vacuum concentrator (SpeedVac) (Eppendorf, Hamburg, Germany) for 45 min at 30 °C and was stored afterwards at −20 °C.
The protein eluate fractions of each group (50 μg; n = 3 biological replicates per group) were separated by 1D SDS PAGE on 10-well NuPAGE® 12% Bis-Tris gels using NuPAGE™ MOPS SDS Running Buffer 20X (Thermo Fisher Scientific, Rockford, IL, USA). The 1D SDS PAGE was performed with the XCell SureLock^TM Mini-Cell Electrophoresis System (Thermo Fisher Scientific, Rockford, IL, USA) under denatured and reduced conditions, as already described in previous publications. The protein separation was performed for 2 h at 4 °C using 150 V, and then the gels were stained with the Novex Colloidal Blue Staining Kit (Thermo Fisher Scientific, Rockford, IL, USA) according to the manufacturer’s protocol. The next day, the gels were destained overnight and scanned using a DGP-9042 scanner (Brother Industries, Nagoya, Japan) at 600 dpi. In-gel trypsin digestion was performed as already described in previous publications. In brief, each protein lane was divided into 17 slices and was subsequently cut into small pieces. […]

Q: `O=C1C(=Cc2ccc(-c3ccccc3[N+](=O)[O-])o2)C(=O)N(c2ccccc2)C(=S)N1c1ccccc1` [UCF-101, reference compound] was tested. Which “FGF2 (Fibroblast growth factor 2) as significant interaction partner of HTRA2” value (HTRA2 alone: -) did it give?
A: √ (Proteins fulfilled filtering criteria (p < 0.01; log2 fold change > 1.5))

Q: What about the “FTH1 (Ferritin heavy chain) as significant interaction partner of HTRA2” value (HTRA2 alone: -) of the same molecule?
A: √ (Proteins fulfilled filtering criteria (p < 0.01; log2 fold change > 1.5))

Q: And the “GTF2F2 (General transcription factor IIF subunit 2) as significant interaction partner of HTRA2” value (HTRA2 alone: -)?
A: √ (Proteins fulfilled filtering criteria (p < 0.01; log2 fold change > 1.5))

Q: What about the “NAPG (Gamma-soluble NSF attachment protein) as significant interaction partner of HTRA2” value (HTRA2 alone: -) of the same molecule?
A: - (Proteins failed to fulfill the filtering criteria (p > 0.01; log2 fold change < 1.5))

Q: What about the “PDZD11 (PDZ domain-containing protein 11) as significant interaction partner of HTRA2” value (HTRA2 alone: -) of the same molecule?
A: √ (Proteins fulfilled filtering criteria (p < 0.01; log2 fold change > 1.5))

Q: What about the “PGRMC1 (Membrane-associated progesterone receptor component 1) as significant interaction partner of HTRA2” value (HTRA2 alone: -) of the same molecule?
A: √ (Proteins fulfilled filtering criteria (p < 0.01; log2 fold change > 1.5))

Q: What about the “PLRG1 (Pleiotropic regulator 1) as significant interaction partner of HTRA2” value (HTRA2 alone: -) of the same molecule?
A: - (Proteins failed to fulfill the filtering criteria (p > 0.01; log2 fold change < 1.5))

Q: And the “POLR2E (DNA-directed RNA polymerases I, II, and III subunit RPABC1) as significant interaction partner of HTRA2” value (HTRA2 alone: -)?
A: - (Proteins failed to fulfill the filtering criteria (p > 0.01; log2 fold change < 1.5))

Q: What about the “PPA1 (Inorganic pyrophosphatase) as significant interaction partner of HTRA2” value (HTRA2 alone: -) of the same molecule?
A: √ (Proteins fulfilled filtering criteria (p < 0.01; log2 fold change > 1.5))

Q: What about the “SFRP1 (Secreted frizzled-related protein 1) as significant interaction partner of HTRA2” value (HTRA2 alone: -) of the same molecule?
A: - (Proteins failed to fulfill the filtering criteria (p > 0.01; log2 fold change < 1.5))

Q: And the “TUBA1C (Tubulin alpha-1C chain) as significant interaction partner of HTRA2” value (HTRA2 alone: -)?
A: - (Proteins failed to fulfill the filtering criteria (p > 0.01; log2 fold change < 1.5))

Q: What about the “UBE2N (Ubiquitin-conjugating enzyme E2 N) as significant interaction partner of HTRA2” value (HTRA2 alone: -) of the same molecule?
A: √ (Proteins fulfilled filtering criteria (p < 0.01; log2 fold change > 1.5))

Q: And the “CDC42 (Cell division control protein 42 homolog) as significant interaction partner of HTRA2” value (HTRA2 alone: n.d.)?
A: √ (Proteins fulfilled filtering criteria (p < 0.01; log2 fold change > 1.5))

Q: What about the “COPE (Coatomer subunit epsilon) as significant interaction partner of HTRA2” value (HTRA2 alone: n.d.) of the same molecule?
A: √ (Proteins fulfilled filtering criteria (p < 0.01; log2 fold change > 1.5))

Q: What about the “MRPL2 (39S ribosomal protein L2, mitochondrial) as significant interaction partner of HTRA2” value (HTRA2 alone: n.d.) of the same molecule?
A: - (Proteins failed to fulfill the filtering criteria (p > 0.01; log2 fold change < 1.5))

Q: And the “SNX3 (Sorting nexin-3) as significant interaction partner of HTRA2” value (HTRA2 alone: n.d.)?
A: √ (Proteins fulfilled filtering criteria (p < 0.01; log2 fold change > 1.5))

Q: And the “SOWAHA (Ankyrin repeat domain-containing protein SOWAHA) as significant interaction partner of HTRA2” value (HTRA2 alone: n.d.)?
A: - (Proteins failed to fulfill the filtering criteria (p > 0.01; log2 fold change < 1.5))

Q: And the “TIMM13 (Mitochondrial import inner membrane translocase subunit Tim13) as significant interaction partner of HTRA2” value (HTRA2 alone: n.d.)?
A: √ (Proteins fulfilled filtering criteria (p < 0.01; log2 fold change > 1.5))

Q: What about the “TUBB8 (Tubulin beta-8 chain) as significant interaction partner of HTRA2” value (HTRA2 alone: n.d.) of the same molecule?
A: - (Proteins failed to fulfill the filtering criteria (p > 0.01; log2 fold change < 1.5))

Q: What about the “ANK2 (Ankyrin-2) as significant interaction partner of HTRA2” value (HTRA2 alone: √) of the same molecule?
A: - (Proteins failed to fulfill the filtering criteria (p > 0.01; log2 fold change < 1.5))

Q: What about the “AP2A1 (AP-2 complex subunit alpha-1) as significant interaction partner of HTRA2” value (HTRA2 alone: √) of the same molecule?
A: - (Proteins failed to fulfill the filtering criteria (p > 0.01; log2 fold change < 1.5))

Q: And the “AP3D1 (AP-3 complex subunit delta-1) as significant interaction partner of HTRA2” value (HTRA2 alone: √)?
A: - (Proteins failed to fulfill the filtering criteria (p > 0.01; log2 fold change < 1.5))

Q: What about the “AUH (Methylglutaconyl-CoA hydratase, mitochondrial) as significant interaction partner of HTRA2” value (HTRA2 alone: √) of the same molecule?
A: - (Proteins failed to fulfill the filtering criteria (p > 0.01; log2 fold change < 1.5))

Q: What about the “CS (Citrate synthase, mitochondrial) as significant interaction partner of HTRA2” value (HTRA2 alone: √) of the same molecule?
A: - (Proteins failed to fulfill the filtering criteria (p > 0.01; log2 fold change < 1.5))

Q: And the “CSTB (Cystatin-B) as significant interaction partner of HTRA2” value (HTRA2 alone: √)?
A: - (Proteins failed to fulfill the filtering criteria (p > 0.01; log2 fold change < 1.5))

Q: And the “DNAJA3 (DnaJ homolog subfamily A member 3, mitochondrial) as significant interaction partner of HTRA2” value (HTRA2 alone: √)?
A: - (Proteins failed to fulfill the filtering criteria (p > 0.01; log2 fold change < 1.5))

Q: And the “DTD1 (D-aminoacyl-tRNA deacylase 1) as significant interaction partner of HTRA2” value (HTRA2 alone: √)?
A: - (Proteins failed to fulfill the filtering criteria (p > 0.01; log2 fold change < 1.5))

Q: And the “EIF2S3 (Eukaryotic translation initiation factor 2 subunit 3) as significant interaction partner of HTRA2” value (HTRA2 alone: √)?
A: - (Proteins failed to fulfill the filtering criteria (p > 0.01; log2 fold change < 1.5))

Q: And the “FAM30A (Putative uncharacterized protein FAM30A) as significant interaction partner of HTRA2” value (HTRA2 alone: √)?
A: - (Proteins failed to fulfill the filtering criteria (p > 0.01; log2 fold change < 1.5))

Q: And the “FLNA (Filamin-A) as significant interaction partner of HTRA2” value (HTRA2 alone: √)?
A: - (Proteins failed to fulfill the filtering criteria (p > 0.01; log2 fold change < 1.5))

Q: And the “GDI1 (Rab GDP dissociation inhibitor alpha) as significant interaction partner of HTRA2” value (HTRA2 alone: √)?
A: - (Proteins failed to fulfill the filtering criteria (p > 0.01; log2 fold change < 1.5))

Q: What about the “GLO1 (Lactoylglutathione lyase) as significant interaction partner of HTRA2” value (HTRA2 alone: √) of the same molecule?
A: - (Proteins failed to fulfill the filtering criteria (p > 0.01; log2 fold change < 1.5))

Q: What about the “GNL1 (Guanine nucleotide-binding protein-like 1) as significant interaction partner of HTRA2” value (HTRA2 alone: √) of the same molecule?
A: - (Proteins failed to fulfill the filtering criteria (p > 0.01; log2 fold change < 1.5))

Q: And the “HAGH (Hydroxyacylglutathione hydrolase, mitochondrial) as significant interaction partner of HTRA2” value (HTRA2 alone: √)?
A: - (Proteins failed to fulfill the filtering criteria (p > 0.01; log2 fold change < 1.5))

Q: And the “HTRA2 (Serine protease HTRA2, mitochondrial; target protein) enriched” value (HTRA2 alone: √)?
A: √ (Proteins fulfilled filtering criteria (p < 0.01; log2 fold change > 1.5))

Q: What about the “HYOU1 (Hypoxia up-regulated protein 1) as significant interaction partner of HTRA2” value (HTRA2 alone: √) of the same molecule?
A: - (Proteins failed to fulfill the filtering criteria (p > 0.01; log2 fold change < 1.5))

Q: What about the “ME2 (NAD-dependent malic enzyme, mitochondrial) as significant interaction partner of HTRA2” value (HTRA2 alone: √) of the same molecule?
A: - (Proteins failed to fulfill the filtering criteria (p > 0.01; log2 fold change < 1.5))

Q: What about the “NCKAP1 (Nck-associated protein 1) as significant interaction partner of HTRA2” value (HTRA2 alone: √) of the same molecule?
A: - (Proteins failed to fulfill the filtering criteria (p > 0.01; log2 fold change < 1.5))

Q: What about the “PACS1 (Phosphofurin acidic cluster sorting protein 1) as significant interaction partner of HTRA2” value (HTRA2 alone: √) of the same molecule?
A: - (Proteins failed to fulfill the filtering criteria (p > 0.01; log2 fold change < 1.5))

Q: What about the “POTEE (POTE ankyrin domain family member E) as significant interaction partner of HTRA2” value (HTRA2 alone: √) of the same molecule?
A: - (Proteins failed to fulfill the filtering criteria (p > 0.01; log2 fold change < 1.5))

Q: And the “PTGES3 (Prostaglandin E synthase 3) as significant interaction partner of HTRA2” value (HTRA2 alone: √)?
A: √ (Proteins fulfilled filtering criteria (p < 0.01; log2 fold change > 1.5))

Q: What about the “SHMT2 (Serine hydroxymethyltransferase, mitochondrial) as significant interaction partner of HTRA2” value (HTRA2 alone: √) of the same molecule?
A: - (Proteins failed to fulfill the filtering criteria (p > 0.01; log2 fold change < 1.5))

Q: And the “SPTBN1 (Spectrin beta chain, non-erythrocytic 1) as significant interaction partner of HTRA2” value (HTRA2 alone: √)?
A: - (Proteins failed to fulfill the filtering criteria (p > 0.01; log2 fold change < 1.5))

Q: And the “UBE2V1 (Ubiquitin-conjugating enzyme E2 variant 1) as significant interaction partner of HTRA2” value (HTRA2 alone: √)?
A: √ (Proteins fulfilled filtering criteria (p < 0.01; log2 fold change > 1.5))
